Measurements taken from patent EP0136586A2, “Novel corticoid derivatives and process for production thereof” (priority 1983, dated 1985).

What was measured:
[1] = system: edema; assay: Topical anti-inflammatory activity (croton oil ear edema); assay type: in vivo, Male mice of ddY-strain; conditions: for Anti-inflammatory activity ratio (A): ratio against clobetasol 17-propionate (=1), linear regression parallel test method, edema-repressing rate, topical application to mouse ear with croton oil, 5th hour after application; for R=A/B: anti-inflammatory activity ratio (A) divided by thymolytic activity ratio (B)
Protocol: 0.9 % sodium chloride, 0.4 % Tween 80, 0.5 % carboxymethyl cellulose and 0.9 % benzyl alcohol are dissolved or suspended in distilled water, which is used as a suspending medium. The compounds to be tested are dissolved in a mixture of the suspending medium : pyridine : diethyl ether = 1 : 4 : 5 and mixed with equal volume of diethyl ether containing 10 % croton oil and the mixture is used as the test liquid. Commercially available felt having a thickness of 5 mm is cut in 7mm x 7 mm square and adhered to ring tweezers using alkyl-a-cyanoacrylate. The felt is soaked in the test liquid and the liquid is applied to the right ear of the mouse by rubbing it with the felt at a fixed pressure without anesthesia. The left ear is left untreated. At 5th hours after application, mice are killed and both of the ears are cut and weighed. The rate (%) of increase in the weight of right ear against that of left ear is calculated as the edema ratio. Edema ratios obtained on the test compounds are compared with those obtained on control and edema-repressing rate is obtained.

[2] = system: thymus gland; conditions: rat, in vivo, sc, 11520 min
Protocol: 2) Experiment on thymolytic action
The compounds to be tested are dissolved in a liquid consisting of croton oil : cotton seed oil : ethanol = 1:89:10 and the solution is used for injection.
The rats are anesthesized by inhalation of ether and 20 ml of air are subcutaneously injected into hypodermic organ at the back of the rats using a thin injection needle to form an oval-shaped air cavity. After the rats recovered from anesthesia they are kept on normal food and water. At 8th days after injection, rats are killed by depletion and dissected. The thymus gland is taken out and the wet weight is measured. Thymus weights obtained on the test compounds are divided with those obtained on control, and thymus gland atrophy rate is obtained.
In each of the experiments on anti-inflammatory activity and thymolytic action, clobetasol 17-propionate and betamethasone 17,21-dipropionate are used standard compounds and anti-inflammatory activity ratio and thymolytic activity ratio against clobetasol 17-propionate are calculated using linear regression parallel test method.

| Compound | Anti-inflammatory activity ratio (A) [1] | Thymolytic activity ratio (B) [2] | R=A/B [1] |
| --- | --- | --- | --- |
| 21-chloro-9a-fluoro-16a-methyl-l,4-pregnadiene-11β,17α-diol-3,6,20-trione 17a-methyl carbonate [Example 8] | 0.51 |  |  |
| 21-chloro-9α-fluoro-16β-mathyl-1,4-pregnadiene-11β,17α-diol-3,6,20-trione 17α-methyl carbonate [Example 2] | 3.0 | 0.018 |  |
| 21-chloro-9α-fluoro-16β-methyl-1,4-pregnadiene-11β,17α-diol-3,6,20-trione 17a-ethyl carbonate [Example 4] | 1.3 | 0.048 |  |
| CCC(=O)OCC(=O)[C@@]1(OC(=O)CC)[C@@H](C)C[C@H]2[C@@H]3CCC4=CC(=O)C=C[C@]4(C)[C@@]3(F)[C@@H](O)C[C@@]21C [Betamethasone 17,21-dipropionate, betamethasone 17,21-dipropionate, reference compound] | 0.080 | 0.030 | 2.7 |
| CCC(=O)O[C@]1(C(=O)CCl)[C@@H](C)C[C@H]2[C@@H]3CCC4=CC(=O)C=C[C@]4(C)[C@@]3(F)[C@@H](O)C[C@@]21C [Clobetasol 17-propionate, clobetasol 17-propionate, reference compound] |  | 1 | 1 |
| CCC(=O)O[C@]1(C(=O)CCl)[C@@H](C)C[C@H]2[C@@H]3CC(=O)C4=CC(=O)C=C[C@]4(C)[C@@]3(F)[C@@H](O)C[C@@]21C [Comparative Example 1, 21-chloro-9α-fluoro-16β-methyl-1,4-pregnadiene-11S,17a-diol-3,6,20-trione 17a-propionate, reference compound] | 0.53 | 0.29 | 1.8 |
| COC(=O)O[C@]1(C(=O)CCl)[C@@H](C)C[C@H]2[C@@H]3CCC4=CC(=O)C=C[C@]4(C)[C@@]3(F)[C@@H](O)C[C@@]21C [Comparative Example 2, 21-chloro-9α-fluoro-16β-methyl-1,4-pregnadiene-11β,17α-diol-3,20-dione 17a-methyl carbonate, reference compound] | 0.96 | 1.2 | 0.8 |
| CCCOC(=O)O[C@]1(C(=O)CCl)[C@@H](C)C[C@H]2[C@@H]3CC(=O)C4=CC(=O)C=C[C@]4(C)[C@@]3(F)[C@@H](O)C[C@@]21C [Example 6, 21-chloro-9α-fluoro-16β-methyl-1,4-pregnadiene-11β,17α-diol-3,6,20-trione 17a-propyl carbonate] | 0.74 | 0.24 | 3.1 |
| COC(=O)CCC(=O)O[C@]1(C(=O)CCl)[C@@H](C)C[C@H]2[C@@H]3CCC4=CC(=O)C=C[C@]4(C)[C@@]3(F)[C@@H](O)C[C@@]21C [Example 12, 21-chloro-9α-fluoro-16β-methyl-1,4-pregnadiene-11β,17α-diol-3,20-dione 17a-(6-methoxycarbonyl propionate)] | 1.3 | 0.072 | 18 |
| COC(=O)CCC(=O)O[C@]1(C(=O)CCl)[C@@H](C)C[C@H]2[C@@H]3CC(=O)C4=CC(=O)C=C[C@]4(C)[C@@]3(F)[C@@H](O)C[C@@]21C [Example 13, 21-chloro-9α-fluoro-16β-methyl-1,4-pregnadiene-11β,17α-diol-3,6,20-trione 17α-(β-methoxycarbonyl propionate)] | 1.0 | <0.01 | >100 |
| COC(=O)CCC(=O)O[C@]1(C(=O)CCl)[C@H](C)C[C@H]2[C@@H]3CCC4=CC(=O)C=C[C@]4(C)[C@@]3(F)[C@@H](O)C[C@@]21C [Example 14, 21-chloro-9α-fluoro-16α-msthyl-1,4-pregnadiene-11β,17α-diol-3,20-dione 17α-(β-methoxycarbonyl propionate)] | 0.2 | <0.01 | > 20 |
| CCOC(=O)CCCC(=O)O[C@]1(C(=O)CCl)[C@@H](C)C[C@H]2[C@@H]3CCC4=CC(=O)C=C[C@]4(C)[C@@]3(F)[C@@H](O)C[C@@]21C [Example 15, 21-chloro-9α-fluoro-16β-methyl-1,4-pregnadiene-11β,17α-diol-3,20-dione 17a-(y-ethoxycarbonyl butyrate)] | 0.68 | 0.012 | 57 |
| CCOC(=O)CCC(=O)O[C@]1(C(=O)CCl)[C@@H](C)C[C@H]2[C@@H]3CCC4=CC(=O)C=C[C@]4(C)[C@@]3(F)[C@@H](O)C[C@@]21C [Example 17, 21-chloro-9α-fluoro-16β-methyl-1,4-pregnadien-11β,17α-diol-3,20-dione 17α-(β-ethoxycarbonyl propionate)] | 0.56 | 0.007 | 80 |
